Data set [1] has as its system MCF7 cells. The experiment in a line: Inhibition of the proliferation of MCF7 cells (Cell Titer-Glo). It is filed as cell-based. Particulars: Homo sapiens, MCF-7 cells, 72 hours, read-out: IC50 value of inhibition effect on the proliferation of MCF7 cells. A digest of the protocol:
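Viability by Cell Titer-Glo luminescence; IC50 from signal versus log concentration.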

Data set [2] addresses ERα (Homo sapiens (Human), UniProt P03372). The experiment in a line: Degradation effect on ERα in MCF-7 cells (ERα Duoset ELISA). It is filed as cell-based. The note with it: MCF-7 cells; read-out: IC50 value of the degradation effect on ERα. The procedure: In order to determine the degradation effect on ER induced by the compounds of the present invention, the following method was used to determine the degradation effect of the compounds of the present invention on ER.
MCF-7 cell line (TChu 74, Cell Bank of Chinese Academy of Sciences typical culture preservation Committee)
ERα Duoset Kit (#DYC5715E, R&D System)
MCF-7 cells were incubated in DMEM/F-12 medium containing 10% FBS.
On the first day of the experiment, MCF-7 cells were resuspended in DMEM/F-12 medium containing 10% FBS treated by activated carbon, then inoculated into a 48-well plate with a density of 50,000 cells/well and incubated for 22-24 hours.
On the second day of the experiment, the test compound was diluted with medium and added to a 48-well plate. The ERα-capture antibody was diluted to 1 μg/ml with PBS, and added to a 96-well plate at 100 μl/well. The plate was sealed and coated overnight at room temperature.
On the third day of the experiment, the coated 96-well plate was washed twice with PBS, added with a sealing solution (1% BSA in PBS) at 110 μl/well and sealed for 1 hour at room temperature. The 48-well plate was washed once with PBS, and the residual liquid was removed. Then, 60 μl of lysis (6 M urea, 1 mM EDTA, 0.5% Triton X-100, 1 mM PMSF, Protease Inhibitor cocktail) was added to each well. After lysis on ice for 15 minutes, the diluent (1 mM EDTA, 0.5% TritonX-100 dissolved in PBS) was added. The cell-diluted lysate was transferred to a 96-well plate at 100 μl/well, then the plate was incubated at room temperature for 2 hours. The diluted primary antibody was added after the plate was washed 4 times with a washing liquid (PBST). After incubation for 1 hour, the 96-well plate was washed 4 times, and the second antibody was added, then the plate was incubated for 30 minutes. After the plate was washed with a washing liquid, TMB chromogenic solution was added and incubated for 15 minutes. The reaction was stopped by the addition of 1 M H2SO4, then the light absorption at 450 nm was read.
(In an ELISA, binding on a coated surface is turned into a signal by an enzyme label.)

The target in data set [3] is estrogen receptor (ER) (Homo sapiens (Human), UniProt P03372). The experiment in a line: Inhibition of the binding of estrogen (E) to estrogen receptor (ER), MCF-7/ERE-luciferase reporter cells. It counts as cell-based. Particulars: MCF-7/ERE-luciferase cells, 0.1 nM estradiol, 24 hours; read-out: IC50 value of inhibition effect on the binding of E to ER. The procedure:
The inhibition effect of the compounds on the binding of E to ER in vitro was tested by the following method.
The object of this experiment was to determine the inhibition effect of the compounds on the binding of E to ER, and the in vitro activity of the compounds was evaluated according to the IC50 value.
MCF-7/ERE-luciferase cells were inoculated into the MEM medium (hyclone, SH30024.01B) containing 10% charcoal stripped FBS (Moregate, FBSF), 1% sodium pyruvate (Sigma, Cat. No. S8636), 1% nonessential amino acids (Sigma, Cat. No. M7145) and 500 μg/ml G418 in a 96-well plate with a density of 30,000 cells/well, and the cells were incubated under the conditions of 37° C. and 5% CO2. […] After incubation for 24 hours, the medium was removed, then 0.1 nM estradiol (Sigma, Cat. No. E2758) and 10 μl of the drug diluted with the medium were added to each well, and the control group was added with DMSO. The plate was gently shaken and incubated in a incubator at 37° C., 5% CO2. After 24 hours, the cell culture medium was discarded.
The inhibition effect of the compounds of the present invention on the binding of E to ER was tested by the experiment described above.
In general terms: In a reporter assay the amount or activity of a reporter protein is the signal.

The nature of data set [4]: Pharmacokinetics assay in BALB/C nude mice after intragastrical administration. It counts as in vivo. The note with it: female, mouse, plasma, po, 3 mg/kg; for AUC: read-out: Area Under Curve AUC; for CL/F: read-out: Clearance CL/F (converted); for half-life: read-out: Half-Life t½ (converted); for MRT: read-out: Mean Residence Time MRT; for Cmax: read-out: Plasma Conc. Cmax. On the procedure: BALB/C nude mice were used as test animals. The drug concentration in plasma at different time points was determined by LC/MS/MS after intragastrical administration of the compounds of Examples 10, 14, 20, 21, 57, 68, 71, 73, 74, 76 and 89 to BALB/C nude mice. The pharmacokinetic behavior of the compounds of the present invention was studied and evaluated in BALB/C nude mice.
Ninety-nine (99) female BALB/C nude mice were equally divided into 11 groups, which were purchased from SINO-BRITSH SIPPR/BK LAB. ANIMAL LTD., CO, with Certificate No.: SCXK (Shanghai) 2008-0016.
The appropriate amount of each test compound was weighed, and successively added with 9% PEG400+0.5% tween 80+0.5% PVP+90% aqueous solution of 0.5% CMC.
After an overnight fast, 99 female BALB/C nude mice were equally divided into 11 groups, and administered the test compounds intragastrically at an administration volume of 0.2 mL/10 g.
Blood (0.1 mL) was sampled (3 mice at each time point) at 0.5, 1.0, 2.0, 4.0, 6.0, 8.0, 11.0 and 24.0 hours after administration. The samples were stored in heparinized test tubes, and centrifuged for 10 minutes at 3,500 rpm to separate the blood plasma. The plasma samples were stored at −20° C. The plasma concentration of the test compounds in BALB/C nude mice after intragastrical administration was determined by LC/MS/MS.
Pharmacokinetic parameters of the compounds of Examples 10, 14, 20, 21, 57, 68, 71, 73, 74, 76 and 89 of the present invention are shown below.

What is called AUC is the area under the concentration-time curve, a measure of exposure. As a reminder, the half-life is the time in which the quantity being followed falls by half. For orientation: MRT means the average time that molecules of a dose stay in the body. Broadly, the Cmax is the peak of the concentration-time curve.

Chain of estrogen receptor (ER) (P03372 whole entry): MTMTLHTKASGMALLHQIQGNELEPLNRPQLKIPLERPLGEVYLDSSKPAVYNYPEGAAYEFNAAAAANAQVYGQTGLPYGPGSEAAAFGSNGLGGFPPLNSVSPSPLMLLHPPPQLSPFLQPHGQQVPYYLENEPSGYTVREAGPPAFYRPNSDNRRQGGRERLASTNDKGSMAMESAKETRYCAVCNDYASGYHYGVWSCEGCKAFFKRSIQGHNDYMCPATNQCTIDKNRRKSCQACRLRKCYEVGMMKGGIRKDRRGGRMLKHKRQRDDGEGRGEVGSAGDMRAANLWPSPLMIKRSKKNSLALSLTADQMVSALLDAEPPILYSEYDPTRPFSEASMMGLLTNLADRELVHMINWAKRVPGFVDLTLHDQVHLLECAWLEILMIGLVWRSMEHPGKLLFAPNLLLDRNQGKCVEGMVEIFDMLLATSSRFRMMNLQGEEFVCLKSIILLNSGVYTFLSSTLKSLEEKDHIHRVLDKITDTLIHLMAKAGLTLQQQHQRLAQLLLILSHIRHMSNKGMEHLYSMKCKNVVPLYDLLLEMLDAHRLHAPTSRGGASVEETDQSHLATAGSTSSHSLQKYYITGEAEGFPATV
Chain of ERα (P03372 whole entry): as above

With `CC1Cc2cc3c(cc2C(c2c(F)cc(/C=C/C(=O)O)cc2F)N1CC(C)(C)F)OCCO3` [Example 2, (E)-3-(3,5-difluoro-4-((6S,8R/6R,8S)-7-(2-fluoro-2-methylpropyl)-8-methyl-2,3,6,7,8,9-hexahydro-[1,4]dioxino[2,3-g]isoquinolin-6-yl)phenyl)acrylic acid], the values for the IC50 in data set [1] and in data set [3] were 0.49 nM and 3.2 nM, respectively. Further, the DC50 in data set [2] worked out at 0.95 nM.
With `CC1Cc2c(sc3ccccc23)C(c2c(F)cc(/C=C/C(=O)O)cc2F)N1CC(C)(C)F` [Example 5, (E)-3-(3,5-difluoro-4-((1R,3R/1S,3S)-2-(2-fluoro-2-methylpropyl)-3-methyl-1,2,3,4-tetrahydrobenzo[4,5]thieno[2,3-c]pyridin-1-yl)phenyl)acrylic acid], the IC50 in data set [1] came out at 1.2 nM. Further, the DC50 in data set [2] turned out to be 3.94 nM.
Turning to `CC1Cc2sc3ccccc3c2C(c2c(F)cc(/C=C/C(=O)O)cc2F)N1CC(C)(C)F` [Example 6, (E)-3-(3,5-difluoro-4-((1R,3R/1S,3S)-2-(2-fluoro-2-methylpropyl)-3-methyl-1,2,3,4-tetrahydrobenzo[4,5]thieno[3,2-c]pyridin-1-yl)phenyl)acrylic acid], in data set [1], the IC50 was found to be 1.91 nM. Besides, in data set [2], the DC50 stood at 1.92 nM.
Regarding `CC1Cc2cc(-c3cnn(C(F)F)c3)ccc2C(c2c(F)cc(/C=C/C(=O)O)cc2F)N1CC(C)(C)F` (stereo not drawn) [Example 13], the IC50 in data set [1] came out at 0.46 nM. Further, the DC50 in data set [2] was determined as 6.93 nM.
The corresponding values for `CC1Cc2cc(-c3cnn(C)c3)c(F)cc2C(c2c(F)cc(/C=C/C(=O)O)cc2F)N1CC(C)(C)F` [Example 16, (E)-3-(3,5-difluoro-4-((1S,3R/1R,3S)-7-fluoro-2-(2-fluoro-2-methylpropyl)-3-methyl-6-(1-methyl-1H-pyrazol-4-yl)-1,2,3,4-tetrahydroisoquinolin-1-yl)phenyl)acrylic acid] are 0.47 nM and 3.11 nM.
In the same order, the values of `CCn1cc(-c2cc3c(cc2F)C(c2c(F)cc(/C=C/C(=O)O)cc2F)N(CC(C)(C)F)C(C)C3)cn1` [Example 17, (E)-3-(4-((1S,3R/1R,3S)-6-(1-ethyl-1H-pyrazol-4-yl)-7-fluoro-2-(2-fluoro-2-methylpropyl)-3-methyl-1,2,3,4-tetrahydroisoquinolin-1-yl)-3,5-difluorophenyl)acrylic acid] are 0.34 nM and 1.43 nM.
The corresponding values for `CCCn1cc(-c2ccc3c(c2)CC(C)N(CC(C)(C)F)C3c2c(F)cc(/C=C/C(=O)O)cc2F)cn1` [Example 18, (E)-3-(3,5-difluoro-4-((1S,3R/1R,3S)-2-(2-fluoro-2-methylpropyl)-3-methyl-6-(1-propyl-1H-pyrazol-4-yl)-1,2,3,4-tetrahydroisoquinolin-1-yl)phenyl)acrylic acid] are 1.03 nM and 4.2 nM.
Turning to `CNC(=O)COc1ccc2c(c1)CC(C)N(CC(C)(C)F)C2c1c(F)cc(/C=C/C(=O)O)cc1F` [Example 32, (E)-3-(3,5-difluoro-4-((1S,3R/1R,3S)-2-(2-fluoro-2-methylpropyl)-3-methyl-6-(2-(methylamino)-2-oxoethoxy)-1,2,3,4-tetrahydroisoquinolin-1-yl)phenyl)acrylic acid], the IC50 stood at 0.01 nM in data set [1] and 1.45 nM in data set [3]. The DC50 in data set [2] worked out at 0.41 nM.
In the same order, the values of `CC1Cc2cc(N3CCOCC3)ccc2C(c2c(F)cc(/C=C/C(=O)O)cc2F)N1CC(C)(C)F` [Example 41, (E)-3-(3,5-difluoro-4-((1S,3R/1R,3S)-2-(2-fluoro-2-methylpropyl)-3-methyl-6-morpholino-1,2,3,4-tetrahydroisoquinolin-1-yl)phenyl)acrylic acid] are 1.9 nM, 1.94 nM and 0.36 nM.
For `CC1Cc2c(ccc(-c3cnn(C)c3)c2F)C(c2c(F)cc(/C=C/C(=O)O)cc2F)N1CC(C)(C)F` [Example 45, (E)-3-(3,5-difluoro-4-((1S,3R/1R,3S)-5-fluoro-2-(2-fluoro-2-methylpropyl)-3-methyl-6-(1-methyl-1H-pyrazol-4-yl)-1,2,3,4-tetrahydroisoquinolin-1-yl)phenyl)acrylic acid], the IC50 in data set [1] amounted to 0.08 nM; in data set [3] it was 0.87 nM. The DC50 in data set [2] was found to be 2.12 nM.
Take `Cc1ncc(-c2ccc3c(c2)CC(C)N(CC(C)(C)F)C3c2c(F)cc(/C=C/C(=O)O)cc2F)o1` [Example 49, (E)-3-(3,5-difluoro-4-((1S,3R/1R,3S)-2-(2-fluoro-2-methylpropyl)-3-methyl-6-(2-methyloxazol-5-yl)-1,2,3,4-tetrahydroisoquinolin-1-yl)phenyl)acrylic acid]: the IC50 in data set [1] was determined as 1.63 nM. Besides, in data set [2], the DC50 is 6.29 nM.
The corresponding values for `CC1Cc2c(ccc3[nH]ncc23)C(c2c(F)cc(/C=C/C(=O)O)cc2F)N1CC(C)(C)F` [Example 70, (E)-3-(3,5-difluoro-4-((6S,8R/6R,8S)-7-(2-fluoro-2-methylpropyl)-8-methyl-6,7,8,9-tetrahydro-3H-pyrazolo[4,3-f]isoquinolin-6-yl)phenyl)acrylic acid] are 0.14 nM and 0.77 nM.
`CC1Cc2c(oc3cccc(F)c23)C(c2c(F)cc(/C=C/C(=O)O)cc2F)N1CC(C)(C)F` [Example 73, (E)-3-(3,5-difluoro-4-((1R,3R/1S,3S)-5-fluoro-2-(2-fluoro-2-methylpropyl)-3-methyl-1,2,3,4-tetrahydrobenzofuro[2,3-c]pyridin-1-yl)phenyl)acrylic acid]: in data set [4], the AUC is 3950 ng·h/mL, the CL/F was 210 mL/min/kg, the half-life was 88.2 min and the mean residence time (MRT) was 2.45 h. The Cmax in data set [4] is 1490 ng/mL. For the same compound, in data set [1], the IC50 stood at 0.2 nM. Also, in data set [2], the DC50 is 0.76 nM.
On to `CCn1cc(-c2ccc3oc4c(c3c2)CC(C)N(CC(C)(C)F)C4c2c(F)cc(/C=C/C(=O)O)cc2F)cn1` [Example 76, (E)-3-(4-((1R,3R/1S,3S)-6-(1-ethyl-1H-pyrazol-4-yl)-2-(2-fluoro-2-methylpropyl)-3-methyl-1,2,3,4-tetrahydrobenzofuro[2,3-c]pyridin-1-yl)-3,5-difluorophenyl)acrylic acid], for which, in data set [4], the AUC amounted to 26900 ng·h/mL, the CL/F is 31 mL/min/kg, the half-life was 272 min and the MRT was found to be 5.7 h. Besides, the maximum concentration (Cmax) in data set [4] was determined as 5460 ng/mL. Also, the IC50 in data set [1] was 0.59 nM. In addition, in data set [2], the DC50 is 2.43 nM.

Values taken from US10087191B2, “Piperidine derivative and preparation method and pharmaceutical use thereof” (Jiangsu Hengrui Medicine Co., Ltd., priority 2015, dated 2018).
